Each structure is given as a SMILES string.

The test system of one data set is amyloid-β (1-42) peptide. Nature of the data set: amyloid-β protein profile by immunoprecipitation and mass spectrometry (IP-MS), protocol of Wang et al. The data set is classed as cell-based. The settings on record: in vitro. The procedure: (§1) Compounds of the present invention were assayed to determine their effect on the total ration of amyloid-β (1-42) peptide in vitro using an assay protocol substantially similar to that described by Wang et al., J. Biol. Chem. 1996, 50:31894-31902, The Profile of Soluble Amyloid β Protein in Cultured Cell Media, the entirety of which is hereby incorporated herein by reference. This assay quantifies amyloid-β protein using immunoprecipitation and mass spectrometry (IP-MS).

Data set [1] has as its system 7W cells (APPwt) and 7PA2 cells (APPV717F). The data set is described as follows: method of Wang et al. in 7W cells (APPwt) and 7PA2 cells (APPV717F). The data set is classed as cell-based. As to the method:
as §1
Compound 6 was also assayed according to the method described in Wang et al., in 7W cells (APPwt) and 7PA2 cells (APPV717F). The APP717 mutations increase the relative amount of amyloid-β (1-42) peptide. In this assay, it was shown that compound 6 reduces amyloid-β (1-42) peptide while increasing amyloid-β (1-39) peptide.

A short description of data set [2]: stability experiments in solution. The data set is classed as physicochemical. The procedure: However, it was stable in slightly acidic solution. Therefore, 2609-165-7 was re-processed on the Luna C8 column using 70% MeOH/30% water containing 0.05% AcOH as eluent to give 3.4 mg of compound 6 (2609-172-11).

Take `CC(=O)O[C@@H]([C@H]1C[C@@H](C)C2=C(O1)[C@H](O)[C@@]1(C)[C@@H]3CC[C@H]4C(C)(C)[C@@H](O[C@@H]5OC[C@@H](O)[C@H](O)[C@H]5O)CC[C@@]45C[C@@]35CC[C@]21C)C(C)(C)O` [Compound 6, 24-O-Acetylhydroshengmanol 3-β-D-xylopyranoside (delta-16,17)-enol ether]: in the data set on amyloid-β (1-42) peptide, the “effect on amyloid-β (1-37) peptide” value is on record as “increasing”, the “effect on amyloid-β (1-39) peptide” value is recorded as “increasing” and the “effect on amyloid-β (1-42) peptide” value is “reduced”. Also, in data set [1], the “effect on amyloid-β (1-39) peptide” value is “increasing” and the “effect on amyloid-β (1-42) peptide” value is recorded as “reduces”. Further, the stability in solution result in data set [2] (MeOH solution which is slightly basic) is reported as “deacetylation occurred”. Besides, the stability in solution result in data set [2] (slightly acidic solution) is reported as “stable”.

For the origin of these results see patent US8263755B2, “Synthesis of compounds useful as modulators of amyloid-beta production” (Satori Pharmaceuticals, Inc., priority 2006, dated 2012).
